From PMC6149849, “Cymantrenyl-Nucleobases: Synthesis, Anticancer, Antitrypanosomal and Antimicrobial Activity Studies” (Molecules : A Journal of Synthetic Chemistry and Natural …, 2017)
Values after ≈ are worked out from the molar mass of the structure shown.

What was measured:
in vitro = details: human
Method: (§1) All of the cultures were maintained at 37 °C in a humidified atmosphere containing 5% of CO2. Toxicity assays were performed, as previously described, with some modifications. In brief, trypanosomes and HL-60 cells were seeded at an initial cell density of 10^4/mL and 5 × 10^4/mL, respectively, in 96-well plates in a final volume of 200 μL culture medium containing various concentrations of test compounds dissolved in 100% DMSO. […] The controls contained DMSO alone. In all of the experiments, the final DMSO concentration was 0.9%. After 24 h incubation, 20 µL of a 0.5 mM resazurin solution prepared in PBS was added and the cultures were incubated for a further 48 h. Resazurin is a vital dye that, when being reduced by living cells, changes its colour from blue to pink. Thus, by measuring absorbance, the proliferation of cells can be easily determined. The change in absorbance was read with a microplate reader using a test wavelength of 570 nm and a reference wavelength of 630 nm. GI50 values were calculated by linear interpolation according to the method described by Huber and Koella. MIC values were determined microscopically.

[1] = tested on: human myeloid leukemia HL-60 cells; assay: in vitro; details: human, 72 h
Method: as §1

[2] = tested on: bloodstream forms of T. brucei clone 427-221a; assay: Trypanocidal assay, resazurin viability assay; assay type: cell-based, Trypanosoma brucei
Method: as §1

[3] = tested on: Clinical S. aureus (MRSA) 31/12; assay: Antibacterial liquid microdilution, clinical isolate; assay type: cell-based, Staphylococcus aureus
Method: (§2) This lack of activity against E. coli can be probably explained by an impeded cellular uptake of the compounds through the Gram-negative cell wall that consists of two layers and effective protein efflux pump systems. The antibacterial activities of 1 and C were further tested against four clinical isolates of S. aureus and two clinical isolates of S. epidermidis (Table 4).
(§3) The antibacterial activity of CymH, 1–7 and C and the reference drugs penicillin G and polymyxin B was tested by the liquid microdilution method under standard conditions using twofold dilution series, as described in the Clinical and Laboratory Standards Institute (CLSI), reference method M07-A8, and expressed as minimal inhibitory concentration (MIC) values. A panel of Gram-positive bacterial strains, S. aureus ATCC® 29213 (sensitive to methicillin, (MSSA)), S. aureus ATCC® 43300 (resistant to methicillin, (MRSA)), S. aureus ATCC 700787™ (intermediate to vancomycin, (VISA)), and S. epidermidis ATCC 12228™, and one Gram-negative, strain E. coli ATCC BAA-198™ (ESBL) were used. In addition, four clinical isolates of S. aureus (MSSA and MRSA) and two clinical isolates of S. epidermidis that were collected from different patients at the Medical University of Warsaw, Poland, were also tested. The bacterial cells were cultivated on tryptic soy agar (TSA) and nutrient agar (NA), according to ATCC recommendations. All of the strains were incubated at 37 °C. Tested compounds were dissolved in DMSO and then serially diluted twofold with cation-adjusted Mueller-Hinton broth (CAMHB). Then, 95 µL of the dilutions were dispensed into microdilution sterile plates (Mar-Four), followed by the addition of 5 µL of bacteria inoculum containing 5 × 10^4 CFU/mL. The final concentrations of the compounds ranged from 512 to 2 µg/mL. Each compound was tested in triplicate, and Penicillin G (8–0.15 µg/mL) and Polymyxin B (256–0.0625 µg/mL) were used as controls. The plates were incubated at 37 °C for 18 to 24 h depending on the bacterial strain. Thereafter, the absorbance was measured at λ = 540 nm and λ = 595 nm using a Spectrostar Omega microplate reader (BMG Labtech, Offenburg, Germany). The MIC value was defined as the lowest concentration of a compound that reduced the growth by 100%.

[4] = tested on: Clinical S. aureus (MSSA) 30/11; assay: as above; assay type: cell-based, Staphylococcus aureus
Method: as §2, §3

[5] = tested on: Clinical S. aureus (MRSA) 44/12; assay: as above; assay type: cell-based, Staphylococcus aureus
Method: as §2, §3

[6] = tested on: Clinical S. aureus (MSSA) 26/11; assay: as above; assay type: cell-based, Staphylococcus aureus
Method: as §2, §3

[7] = tested on: S. epidermidis ATCC 12228; assay: Antibacterial liquid microdilution (CLSI M07-A8); assay type: cell-based, Staphylococcus epidermidis
Method: (§4) Organometallic compounds play an increasingly important role in the search for new antibacterial agents. We, therefore, thought to investigate also the bactericidal activity of the newly synthesized cymantrenes 1–7, compound C and CymH. The antibacterial activity of the compounds was tested against Gram-positive methicillin-sensitive Staphylococcus aureus (MSSA), methicillin-resistant S. aureus (MRSA), vancomycin-intermediate S. aureus (VISA), S. epidermidis, and Gram-negative Escherichia coli bacterial strains, and expressed as minimal inhibitory concentration (MIC) values (Table 3).
as §3

[8] = tested on: S. aureus ATCC 43300 (MRSA); assay: Antibacterial liquid microdilution (CLSI M07-A8); assay type: cell-based, Staphylococcus aureus; details: 18 to 24 h
Method: as §4, §3

[9] = tested on: S. aureus ATCC 29213 (MSSA); assay: Antibacterial liquid microdilution (CLSI M07-A8); assay type: cell-based, Staphylococcus aureus; details: 18 to 24 h
Method: as §4, §3

[10] = tested on: S. aureus ATCC 700787 (VISA); assay: Antibacterial liquid microdilution (CLSI M07-A8); assay type: cell-based, Staphylococcus aureus; details: 18 to 24 h
Method: as §4, §3

[11] = tested on: E. coli ATCC BAA-198 (ESBL); assay: Antibacterial liquid microdilution (CLSI M07-A8); assay type: cell-based, Escherichia coli
Method: as §4, §3

[12] = tested on: Clinical S. epidermidis (MSSA) 43/12; assay: Antibacterial liquid microdilution, clinical isolate; assay type: cell-based, Staphylococcus epidermidis
Method: as §2, §3

[13] = tested on: Clinical S. epidermidis (MSSA) 37/12; assay: as above; assay type: cell-based, Staphylococcus epidermidis
Method: as §2, §3

Cc1ccc(C(=O)Nc2ccc(S(=O)(=O)O)c3cc(S(=O)(=O)O)cc(S(=O)(=O)O)c23)cc1NC(=O)c1cccc(NC(=O)Nc2cccc(C(=O)Nc3cc(C(=O)Nc4ccc(S(=O)(=O)O)c5cc(S(=O)(=O)O)cc(S(=O)(=O)O)c45)ccc3C)c2)c1 [Suramin, suramin, reference compound]
GI50 at 72 h (in vitro): > 100 µM
HL-60 MIC [1]: >100 µM
GI50 ([2]; Trypanosoma brucei, 50% growth inhibition): 39 ± 3 nM
MIC ([2]; Trypanosoma brucei, concentration at which all cells were killed, determined microscopically): 0.1 to 1 µM (≈ 0.13 to 1.3 µg/mL)
Selectivity GI50 Ratio ([2]; ratio of cytotoxic (HL-60) to trypanocidal (T. brucei) activity): >2564

polymyxin B [reference compound]
MIC, Clinical S. aureus (MRSA) 31/12 [3]: 256 µg/mL
MIC, Clinical S. aureus (MSSA) 30/11 [4]: 256 µg/mL
MIC, Clinical S. aureus (MRSA) 44/12 [5]: 256 µg/mL
MIC, Clinical S. aureus (MSSA) 26/11 [6]: 256 µg/mL
MIC, S. epidermidis ATCC 12228 ([7]; 18 to 24 h): 64 µg/mL
MIC, S. aureus ATCC 43300 (MRSA) [8]: 256 µg/mL
MIC, S. aureus ATCC 29213 (MSSA) [9]: 256 µg/mL
MIC, S. aureus ATCC 700787 (VISA) [10]: >256 µg/mL
MIC, E. coli ATCC BAA-198 ([11]; 18 to 24 h): 0.125 µg/mL
MIC, Clinical S. epidermidis (MSSA) 43/12 [12]: 64 µg/mL
MIC, Clinical S. epidermidis (MSSA) 37/12 [13]: 128 µg/mL

CC1(C)S[C@@H]2[C@H](NC(=O)Cc3ccccc3)C(=O)N2[C@H]1C(=O)O [penicillin G, reference compound]
MIC ([3]; Staphylococcus aureus, MRSA): 32 µg/mL (≈ 95.7 µM)
MIC ([4]; Staphylococcus aureus, MSSA): 2 µg/mL (≈ 5.98 µM)
MIC ([5]; Staphylococcus aureus, MRSA): 8 µg/mL (≈ 23.9 µM)
MIC ([6]; Staphylococcus aureus, MSSA): 0.5 µg/mL (≈ 1.5 µM)
MIC ([7]; Staphylococcus epidermidis, ATCC12228, 18 to 24 h): 2 µg/mL (≈ 5.98 µM)
MIC ([8]; Staphylococcus aureus): 16 µg/mL (≈ 47.8 µM)
MIC ([9]; Staphylococcus aureus): 2 µg/mL (≈ 5.98 µM)
MIC ([10]; Staphylococcus aureus): 32 µg/mL (≈ 95.7 µM)
MIC ([11]; Escherichia coli, ATCCBAA198, 18 to 24 h): > 256 µg/mL
MIC ([12]; Staphylococcus epidermidis, MSSA): 8 µg/mL (≈ 23.9 µM)
MIC ([13]; Staphylococcus epidermidis, MSSA, read-out: MIC, Clinical S. epidermidis 37/12): 16 µg/mL (≈ 47.8 µM)
